Results on twelve molecules are retold here after PubChem BioAssay AID1259408 (Genetic Toxicology Data Bank (GENE-TOX), 2018).

The test system of the series is GENE-TOX genotoxicity assays, various organisms and cells. Put plainly: GENE-TOX mutagenicity studies.
The mark [1] stands for this setting: Species/Cell Type: Nonhuman, Assay Type: Sister-chromatid exchange (SCE) in vitro, Assay Code: SC2+, Evaluation Type: Evaluation B (Post-1980).

The source made the active and inactive calls. No rule for the calls is given here. Numbered stars: 1 amine (or outer) side, 2 acyl side, 3 side chain; on linkers, the order of the positions; unused ones are H or OH. Bridge positions count the residues as written; N and C are the ends. Square brackets hold non-standard residues; d marks the D form. Peptide text beside a SMILES is read from it. I, II: the chains in the order shown. Actinocin(9to1) = Cc1c2oc3c(C)ccc(C(=O)[*:1])c3nc-2c(C(=O)[*:2])c(N)c1=O; NMeV = CN[C@H](C(=O)O)C(C)C; Sar = CNCC(=O)O

Turning to `CC(=O)Oc1c(Cl)c(Cl)c(Cl)c(Cl)c1Cl`, the mutagenic call (Species/Cell Type: Bacillus subtilis (H17 vs M45), Assay Type: Rec-assay, spot test, DNA effects (bacterial DNA repair), Assay Code: REWT, Evaluation Type: Evaluation A (Pre-1980)) is reported as “no conclusion”.

In the case of `CCOCC`, the mutagenic call is “inactive; negative” (Species/Cell Type: Aspergillus nidulans, Assay Type: Forward gene mutation, Assay Code: ASF-, Evaluation Type: Evaluation A (Pre-1980)); “active; positive” (Species/Cell Type: Escherichia coli polA (W3119 vs P3478), Assay Type: Rec-assay, DNA effects (bacterial DNA repair), Assay Code: RE1+, Evaluation Type: Evaluation A (Pre-1980)); “inactive; negative” (Species/Cell Type: Mouse, Sex: Male, Assay Type: Sperm morphology, Assay Code: SPI-, Evaluation Type: Evaluation A (Pre-1980)); “no conclusion” (Species/Cell Type: Nonhuman, Assay Type: Sister-chromatid exchange (SCE) in vitro, Assay Code: SC2T, Evaluation Type: Evaluation B (Post-1980)); “no conclusion” (Species/Cell Type: Salmonella typhimurium (one or more of the five standard strains: TA98, TA100, TA1535, TA1537, and TA1538), Assay Type: Histidine reverse gene mutation, Ames assay, Assay Code: SALT, Evaluation Type: Evaluation A (Pre-1980)).

`CC1(C)O[C@@H]1COc1c2occc2cc2ccc(=O)oc12`: the mutagenic call is “active; positive” (Species/Cell Type: Human lymphocytes, Assay Type: Sister-chromatid exchange (SCE) in vitro, Assay Code: SCL+D, Dose Response: With dose response, Evaluation Type: Evaluation B (Post-1980)) and “active; positive” (Species/Cell Type: Human, Assay Type: Sister-chromatid exchange (SCE) in vitro, Assay Code: SC1+D, Dose Response: With dose response, Evaluation Type: Evaluation B (Post-1980)).

In the case of `CCNc1nc(NC(C)(C)C)nc(OC)n1`, the mutagenic call (Species/Cell Type: Saccharomyces cerevisiae, Assay Type: Mitotic recombination or gene conversion, Assay Code: YEC-, Evaluation Type: Evaluation A (Pre-1980)) is “inactive; negative”.

In the case of `Cc1c2oc3c(C)ccc(C(=O)N[C@@H]4C(=O)N[C@H](C(C)C)C(=O)N5CCC[C@H]5C(=O)N(C)CC(=O)N(C)[C@@H](C(C)C)C(=O)O[C@@H]4C)c3nc-2c(C(=O)N[C@@H]2C(=O)N[C@H](C(C)C)C(=O)N3CCC[C@H]3C(=O)N(C)CC(=O)N(C)[C@@H](C(C)C)C(=O)O[C@@H]2C)c(N)c1=O` (I: T[dV]P[Sar][NMeV] / II: T[dV]P[Sar][NMeV]; ester I:1-I:C, II:1-II:C; linker I:N-II:N via Actinocin(9to1)), the mutagenic call was “active; positive” (Species/Cell Type: Allium cepa, Assay Type: Chromosome aberrations, Assay Code: ALC+, Evaluation Type: Evaluation A (Pre-1980)); “inactive; negative” (Species/Cell Type: Chinese hamster lung (V79) cells, Assay Type: Forward gene mutation at the HPRT or ouabain locus, Assay Code: V79-, Evaluation Type: Evaluation A (Pre-1980)); “active; positive” (Species/Cell Type: Chinese hamster ovary (CHO) cells, Assay Type: Forward gene mutation at the HPRT locus, Assay Code: CHO+, Evaluation Type: Evaluation B (Post-1980)); “active; positive” (Species/Cell Type: Drosophila melanogaster, Assay Type: Aneuploidy, sex chromosome gain, chromosome aberrations, Assay Code: DAG+F, Evaluation Type: Evaluation A (Pre-1980)); “active; positive” (Species/Cell Type: Drosophila melanogaster, Assay Type: Aneuploidy, whole sex chromosome loss, chromosome aberrations, Assay Code: DAC+F, Evaluation Type: Evaluation A (Pre-1980)); “no conclusion” (Species/Cell Type: Drosophila melanogaster, Assay Type: Sex-linked recessive lethal gene mutation, Assay Code: SRLT, Evaluation Type: Evaluation A (Pre-1980)). Also, the mutagenic call was “no conclusion” (Species/Cell Type: Escherichia coli polA (W3119 vs P3478), Assay Type: Rec-assay, DNA effects (bacterial DNA repair), Assay Code: RE1T, Evaluation Type: Evaluation A (Pre-1980)); “active; positive” (Species/Cell Type: Glycine max (soybean), Assay Type: Gene mutation, Assay Code: GLM+, Evaluation Type: Evaluation A (Pre-1980)); “active; positive” (Species/Cell Type: Human cell culture, Assay Type: Chromosome aberrations in vitro, Assay Code: CYZ+D, Dose Response: With dose response, Evaluation Type: Evaluation A (Pre-1980)); “active; positive” (Species/Cell Type: Human lymphocytes, Assay Type: Sister-chromatid exchange (SCE) in vivo, Assay Code: SCY+, Evaluation Type: Evaluation B (Post-1980)); “no conclusion” (Species/Cell Type: Mammalian polychromatic erythrocytes, Assay Type: Micronucleus test, chromosome aberrations, Assay Code: MNTT, Evaluation Type: Evaluation A (Pre-1980)); “active; positive” (Species/Cell Type: Mouse (C3H/10T1/2) cells, Assay Type: Cell transformation, Assay Code: CTH+, Evaluation Type: Evaluation A (Pre-1980)). Also, the mutagenic call reads like this: (Species/Cell Type: Mouse, Sex: Male, Assay Type: Sperm morphology, Assay Code: SPI+, Evaluation Type: Evaluation A (Pre-1980)) “active; positive”; (Species/Cell Type: Neurospora crassa, Assay Type: Forward gene mutation, Assay Code: NEF+, Evaluation Type: Evaluation A (Pre-1980)) “active; positive”; (Species/Cell Type: Nonhuman, Assay Type: Chromosome aberrations in vitro, Assay Code: CY&+, Evaluation Type: Evaluation A (Pre-1980)) “active; positive”; (Species/Cell Type: Nonhuman, Assay Type: Sister-chromatid exchange (SCE) in vitro, Assay Code: SC2+, Evaluation Type: Evaluation A (Pre-1980)) “active; positive”; (Species/Cell Type: Nonhuman, Assay Type: Sister-chromatid exchange (SCE) in vivo, Assay Code: SC3+, Evaluation Type: Evaluation B (Post-1980)) “active; positive”; (Species/Cell Type: Saccharomyces cerevisiae, Assay Type: Forward gene mutation, Assay Code: YEFT, Evaluation Type: Evaluation A (Pre-1980)) “no conclusion”. Besides, for the setting “Species/Cell Type: Nonhuman, Assay Type: In vivo carcinogenicity studies, Assay Code: CCG+L, Evaluation Type: Evaluation A (Pre-1980)”, the call is “active; positive”.

Consider `CO[C@@H]1[C@@H](OC(N)=O)[C@@H](O)[C@H](Oc2ccc3c(O)c(NC(=O)c4ccc(O)c(CC=C(C)C)c4)c(=O)oc3c2C)OC1(C)C`, for which, under setting [1], the mutagenic call is “active; positive”.

With `CC1CCCCN1CCNc1ccc(CO)c2sc3ccccc3c(=O)c12` (stereo not drawn), the mutagenic call (Species/Cell Type: Mouse lymphoma (L5178Y) cells, Assay Type: Forward gene mutation at the thymidine kinase (TK) locus, chromosome aberrations, Assay Code: L51+, Evaluation Type: Evaluation A (Pre-1980)) is “active; positive”.

Regarding `O=C(CCN1CCCC1)c1ccc2c(c1)OCO2`, where the note is “Species/Cell Type: Salmonella typhimurium, Assay Type: Forward and reverse gene mutation, host-mediated assay, Assay Code: HMA-, Evaluation Type: Evaluation A (Pre-1980)”, the mutagenic call is “inactive; negative”.

As to `O[C@@H]1[C@@H]2O[C@@H]2c2cc3ccc4cccc5ccc(c2[C@H]1O)c3c45`, the mutagenic call reads like this: (Species/Cell Type: Chinese hamster lung (V79) cells, Assay Type: Forward gene mutation at the HPRT or ouabain locus, Assay Code: V79+, Evaluation Type: Evaluation A (Pre-1980)) “active; positive”; (Species/Cell Type: Nonhuman, Assay Type: Sister-chromatid exchange (SCE) in vitro, Assay Code: SC2+D, Dose Response: With dose response, Evaluation Type: Evaluation B (Post-1980)) “active; positive”.

On to `Cn1c(=O)c2c(n(C)c1=O)n(C)c(=O)n2C`, for which, where the note is “Species/Cell Type: Allium cepa, Assay Type: Chromosome aberrations, Assay Code: ALC+D, Dose Response: With dose response, Evaluation Type: Evaluation A (Pre-1980)”, the mutagenic call is “active; positive”.

As for `C1CC[C@H]2O[C@H]2C1`, the mutagenic call by setting is: under setting [1], “active; positive”; (Species/Cell Type: Nonhuman, Assay Type: Sister-chromatid exchange (SCE) in vitro, Assay Code: SC2T, Evaluation Type: Evaluation A (Pre-1980)) “no conclusion”.

As to `CN(C)CCCN1c2ccccc2CCc2ccccc21`, the mutagenic call was “no conclusion” (Species/Cell Type: Human, Assay Type: Sister-chromatid exchange (SCE) in vitro, Assay Code: SC1T, Evaluation Type: Evaluation B (Post-1980)) and “inactive; negative” (Species/Cell Type: Rodents, Sex: Male, Assay Type: Dominant lethal test, Assay Code: DLT-, Evaluation Type: Evaluation A (Pre-1980)).
